Values of other authors as cited in US5889008A, “Substituted 1-indolylpropyl-4-phenethylpiperazadine derivatives” (Merck Sharp & Dohme, Ltd., priority 1995, dated 1999).

Legend:
humans = settings: therapeutic doses
[1] = test system: human 5-HT1Dα and 5-HT1Dβ receptor subtypes; settings: cf. WO-A-91/17174, Table 1

For CNS(=O)(=O)Cc1ccc2[nH]cc(CCN(C)C)c2c1 [sumatriptan], the adverse cardiovascular events (humans) is listed as “certain adverse cardiovascular events” and the “discrimination between the human 5-HT1Dα and 5-HT1Dβ receptor subtypes” value [1] is listed as “barely discriminates between the human 5-HT1Dα and 5-HT1Dβ receptor subtypes”.
